Laboratory results: the NIST ThermoML archive (doi:10.1021/acs.jced.8b00793)

Conditions: 100 kPa, Liquid; for viscosity: Concentric cylinders viscometry; for mass density: Vibrating tube method

CCO [ethanol]
Conditions	mass density [kg/m3]	viscosity [mPa·s]
293.15 K	790.7	1.23
303.15 K	782.2	1.02
313.15 K	773.4	0.85
323.15 K	760.1	0.71
